According to US20160223554A1, “METHODS FOR DIAGNOSIS, PROGNOSIS AND METHODS OF TREATMENT” (priority 2011, published 2016):

How the values were obtained:
AML blasts [1] = experiment: SCNP phospho-flow signaling nodes in AML PBMC (Example 2, Study No. 1); type: cell-based, human; conditions: for Mean Value of CRs: CR patients; for Mean Value of CRs / Mean Value of NRs: Study No. 1; for Mean Value of NRs: NR patients
Experimental: Frozen cells are thawed in a 37° C. water bath and gently resuspended in the vial and transferred to the 15 mL conical tube. The 15 mL tube is centrifuged at 930 RPM (200×g) for 8 minutes at room temperature. The supernatant is aspirated and the pellet is gently resuspended in 1 mL media A. The cell suspension is filtered through a 70 um cell strainer into a new 15 mL tube. The cell strainer is rinsed with 1 mL media A and another 12 ml of media A into the 15 mL tube. The cells are mixed into an even suspension. A 20 μL aliquot is immediately removed into a 96-well plate containing 180 μL PBS+4% FBS+CD45 Alexa 700+PI to determine cell count and viability post spin. After the determination, the 15 mL tubes are centrifuged at 930 RPM (200×g) for 8 minutes at room temperature. The supernatant is aspirated and the cell pellet is gently resuspended in 4 mL PBS+4 μL Amine Aqua and incubated for 15 min in a 37° C. incubator. 10 mL RPMI+1% FBS is added to the cell suspension and the tube is inverted to mix the cells. The 15 mL tubes are centrifuged at 930 RPM (200×g) for 8 minutes at room temperature. The cells are resuspended in Media A at the desired cell concentration (1.25×10^6/mL). For samples with low numbers of cells (<18.5×10^6), the cells are resuspended in up to 15 mL media. For samples with high numbers of cells (>18.5×10^6), the volume is raised to 10 mL with media A and the desired volume is transferred to a new 15 mL tube, and the cell concentration is adjusted to 1.25×10^6 cells/ml. 1.6 mL of the above cell suspension (concentration at 1.25×10^6 cells/ml) is transferred into wells of a multi-well plate. From this plate, 80 ul is dispensed into each well of a subsequent plate. The plates are covered with a lid (Nunc) and placed in a 37° C. incubator for 2 hours to rest.
A concentration for each stimulant that is five folds more (5×) than the final concentration is prepared using Media A as diluent. 5× stimuli are arrayed into wells of a standard 96 well v-bottom plate that correspond to the wells on the plate with cells to be stimulated.
Adding the stimulant: The cell plate(s) are taken out of the incubator and placed in a 37° C. water bath next to the pipette apparatus. The cell plate is taken from the water bath and gently swirled to resuspend any settled cells. With pipettor, the stimulant is dispensed into the cell plate and vortexed at “7” for 5 seconds. The deep well plate is put back into the water bath.
The plate is covered with foil sealer and incubated in a 37° C. water bath for 10 minutes. The plate is spun for 6 minutes at 2000 rpm at room temperature. The cells are aspirated using a 96 well plate aspirator (VP Scientific). The plate is vortexed to resuspend cell pellets in the residual volume. The pellet is ensured to be dispersed before the Methanol step (see cell permeabilization) or clumping will occur.
Cell Permeabilization: Permeability agent, for example methanol, is added slowly and while the plate is vortexing. To do this, the cell plate is placed on titer plate shaker and made sure it is secure. The plate is set to shake using the highest setting. A pipetter is used to add 0.6 mls of 100% methanol to the plate wells. The plate(s) are put on ice until this step has been completed for all plates. Plates are covered with a foil seal using the plate roller to achieve a tight fit. At this stage the plates can be stored at −80° C.
Cells are thawed if frozen. Cells are pelleted at 2000 rpm 5 minutes. Supernatant is aspirated with vacuum aspirator. Plate is vortexed on a “plate vortex” for 5-10 seconds. Cells are washed with 1 mL FACS buffer. Repeat the spin, aspirate and vortex steps as above. 50 μL of FACS/stain buffer with the desired, previously optimized, antibody cocktail is added to two rows of cells at a time and agitate the plate. The plate is covered and incubated in a shaker for 30 minutes at room temperature (RT). During this incubation, the compensation plate is prepared.

AML blasts [2] = experiment: SCNP signaling and apoptosis nodes in AML BMMC (Example 4, Study No. 2); type: cell-based, human
[3] = Total Phospho metric, Study No. 1, CRp patient included in NR group
[4] = Fold metric, all patients, Study No. 2
[5] = Study No.2, patients less than 60 years old
[6] = Study No.2, patients with Secondary AML
[7] = Fold metric, Study No. 1, CRp patient included in NR group
[8] = read-out p-CREB, metric TotalPhospho
[9] = read-out p-S6, metric TotalPhospho
[10] = Study No.2, patients with De Novo AML
[11] = read-out p-Plcγ2, metric TotalPhospho
[12] = read-out p-Stat1, metric TotalPhospho
[13] = read-out p-Stat3, metric TotalPhospho
[14] = read-out p-Erk, metric TotalPhospho
[15] = read-out p-Akt, metric TotalPhospho

## IL-l0
AML blasts [1]; [3]
  Mean Value of CRs, p-Stat1: 0.17
  Mean Value of NRs, p-Stat1: 0.47

## COc1cc([C@@H]2c3cc4c(cc3[C@@H](O[C@@H]3O[C@@H]5CO[C@@H](C)O[C@H]5[C@H](O)[C@H]3O)[C@H]3COC(=O)[C@H]23)OCO4)cc(OC)c1O [Etoposide, reference compound]
AML blasts [2]; [4]
  Mean Value of CRs, c-PARP: 0.79
  Mean Value of NRs, c-PARP: 0.25
AML blasts [2]; [5]
  Mean Value of CRs, p-Chk2−,c-PARP+ Quad: 21.17
  Mean Value of NRs, p-Chk2−,c-PARP+ Quad: 9.58
AML blasts [2]; [6]
  Mean Value of CRs, p-Chk2+,c-PARP− Quad: 20.98
  Mean Value of CRs, p-Chk2−,c-PARP+ Quad: 32.71
  Mean Value of NRs, p-Chk2+,c-PARP− Quad: 55.02
  Mean Value of NRs, p-Chk2−,c-PARP+ Quad: 13.24

## C/C=C(/C)C(=O)O[C@H]1C(C)=C2[C@H]([C@@H]1OC(=O)CCCCCCC)[C@@](C)(OC(C)=O)C[C@H](OC(=O)CCC)[C@@]1(O)[C@H]2OC(=O)[C@@]1(C)O [Thapsigargin, reference compound]
AML blasts [1]; [7]
  Mean Value of CRs, p-S6: 0.03
  Mean Value of NRs, p-S6: 0.31
AML blasts [1]; [3]
  Mean Value of CRs, p-CREB: 1.79
  Mean Value of CRs, p-S6: 0.31
  Mean Value of NRs, p-CREB: 2.77
  Mean Value of NRs, p-S6: 0.67
AML blasts [1]; [8]
  Mean Value of CRs: 1.90
  Mean Value of NRs: 2.76
AML blasts [1]; read-out p-S6, metric Fold
  Mean Value of CRs: 0.04
  Mean Value of NRs: 0.32
AML blasts [1]; [9]
  Mean Value of CRs: 0.31
  Mean Value of NRs: 0.68
AML blasts [2]; [4]
  Mean Value of CRs, p-Erk: 1.22
  Mean Value of NRs, p-Erk: 0.36
AML blasts [2]; [5]
  Mean Value of CRs, p-CREB TotalPhospho: 2.83
  Mean Value of CRs, p-Erk Fold: 1.28
  Mean Value of NRs, p-CREB TotalPhospho: 3.71
  Mean Value of NRs, p-Erk Fold: 0.40
AML blasts [2]; [10]
  Mean Value of CRs, p-Erk Fold: 1.28
  Mean Value of NRs, p-Erk Fold: 0.27

## IGF-1
AML blasts [1]; [3]
  Mean Value of CRs, p-CREB Alexa488: 1.11
  Mean Value of CRs, p-CREB PE: 1.42
  Mean Value of CRs, p-Plcγ2: 1.82
  Mean Value of NRs, p-CREB Alexa488: 1.62
  Mean Value of NRs, p-CREB PE: 2.29
  Mean Value of NRs, p-Plcγ2: 2.76
AML blasts [1]; [8]
  Mean Value of CRs: 1.52
  Mean Value of NRs: 2.29
AML blasts [1]; [11]
  Mean Value of CRs: 1.91
  Mean Value of NRs: 2.76

## IL-10: cytokine modulator
AML blasts [1]; [3]
  Mean Value of CRs, p-Stat3: 0.72
  Mean Value of NRs, p-Stat3: 1.69
AML blasts [1]; [12]
  Mean Value of CRs: 0.20
  Mean Value of NRs: 0.47
AML blasts [1]; [13]
  Mean Value of CRs: 0.82
  Mean Value of NRs: 1.69
AML blasts [2]; [4]
  Mean Value of CRs, p-Stat3: 0.08
  Mean Value of CRs, p-Stat5: 0.09
  Mean Value of NRs, p-Stat3: 0.39
  Mean Value of NRs, p-Stat5: 0.43
AML blasts [2]; [5]
  Mean Value of CRs, p-Stat3 TotalPhospho: 1.67
  Mean Value of NRs, p-Stat3 TotalPhospho: 2.90
AML blasts [2]; [10]
  Mean Value of CRs, p-Stat3 Fold: 0.05
  Mean Value of CRs, p-Stat3 TotalPhospho: 1.63
  Mean Value of CRs, p-Stat5 Fold: 0.0
  Mean Value of NRs, p-Stat3 Fold: 0.45
  Mean Value of NRs, p-Stat3 TotalPhospho: 2.68
  Mean Value of NRs, p-Stat5 Fold: 0.43

## TNFα
AML blasts [1]; [14]
  Mean Value of CRs: 1.25
  Mean Value of NRs: 1.65

## CN[C@@H]1C[C@H]2O[C@@](C)([C@@H]1OC)n1c3ccccc3c3c4c(c5c6ccccc6n2c5c31)C(=O)NC4 [Stautospotine]
AML blasts [2]; [5]
  Mean Value of CRs, c-PARP Fold: 3.47
  Mean Value of NRs, c-PARP Fold: 7.06

## EPO
AML blasts [1]; [3]
  Mean Value of CRs, p-Stat1: 0.17
  Mean Value of CRs, p-Stat3: 0.64
  Mean Value of NRs, p-Stat1: 0.42
  Mean Value of NRs, p-Stat3: 1.23
AML blasts [1]; [12]
  Mean Value of CRs: 0.20
  Mean Value of NRs: 0.42
AML blasts [1]; [13]
  Mean Value of CRs: 0.72
  Mean Value of NRs: 1.23

## SDF -1α
AML blasts [1]; [15]
  Mean Value of CRs: 0.57
  Mean Value of NRs: 1.04

B1: M-CSF (protein, UniProt P09603 33-554, looked up)
Macrophage colony-stimulating …: EEVSEYCSHMIGSGHLQSLQRLIDSQMETSCQITFEFVDQEQLKDPVCYLKKAFLLVQDIMEDTMRFRDNTPNAIAIVQLQELSLRLKSCFTKDYEEHDKACVRTFYETPLQLLEKVKNVFNETKNLLDKDWNIFSKNCNNSFAECSSQDVVTKPDCNCLYPKAIPSSDPASVSPHQPLAPSMAPVAGLTWEDSEGTEGSSLLPGEQPLHTVDPGSAKQRPPRSTCQSFEPPETPVVKDSTIGGSPQPRPSVGAFNPGMEDILDSAMGTNWVPEEASGEASEIPVPQGTELSPSRPGGGSMQTEPARPSNFLSASSPLPASAKGQQPADVTGTALPRVGPVRPTGQDWNHTPQKTDHPSALLRDPPEPGSPRISSLRPQGLSNPSTLSAQPQLSRSHSSGSVLPLGELEGRRSTRDRRSPAEPEGGPASEGAARPLPRFNSVPLTDTGHERQSEGSFSPQLQESVFHLLVPSVILVLLAVGGLLFYRWRRRSHQEPQRADSPLEQPEGSPLTQDDRQVELPV
AML blasts [1]; [7]
  Mean Value of CRs, p-Akt: −0.16
  Mean Value of NRs, p-Akt: 0.05
AML blasts [1]; [3]
  Mean Value of CRs, p-CREB: 1.26
  Mean Value of CRs, p-Plcγ2: 1.79
  Mean Value of NRs, p-CREB: 1.76
  Mean Value of NRs, p-Plcγ2: 2.8
AML blasts [1]; [11]
  Mean Value of CRs: 1.86
  Mean Value of NRs: 2.81

B2: CD40L (protein, UniProt P29965 113-261, looked up)
CD40 ligand, soluble form: MQKGDQNPQIAAHVISEASSKTTSVLQWAEKGYYTMSNNLVTLENGKQLTVKRQGLYYIYAQVTFCSNREASSQAPFIASLCLKSPGRFERILLRAANTHSSAKPCGQQSIHLGGVFELQPGASVFVNVTDPSQVSHGTGFTSFGLLKL
AML blasts [1]; [3]
  Mean Value of CRs, p-CREB: 1.37
  Mean Value of CRs, p-Erk: 1.18
  Mean Value of NRs, p-CREB: 2.67
  Mean Value of NRs, p-Erk: 1.62
AML blasts [1]; [8]
  Mean Value of CRs: 1.55
  Mean Value of NRs: 2.66
AML blasts [1]; [14]
  Mean Value of CRs: 1.18
  Mean Value of NRs: 1.64
